The values below come from patent US5110828A (priority 1988, dated 1992).

Counter-ions that a name gives are not always drawn. Like-named read-outs stand apart in the source and are kept apart here.

The IC50 is the point on the concentration scale where inhibition reaches its midpoint. A high value points to a need for much substance.

The target in experiment [1] is muscarinic receptors. The experiment can be described thus: Radio ligand binding, displacement of muscarinic agonist 3H-Oxotremorine-M (3H-OXO-M). On the set-up: species or system rat (Hooded Lister). The following applies: displacement of 2 nM 3H-OXO-M, rat cerebral cortex homogenate, 37° C., 30 min, 2 mM magnesium chloride.
Experiment [2] concerns the target muscarinic receptors. The experiment is classed as binding, rat (Hooded Lister). The following applies: displacement of 0.27 nM 3H-QNB, rat cerebral cortex homogenate, 37° C., 30 min.

For `CON=CC12CCCN(CC1)C2` (mixture of isomers) [E 1, (±) syn-1-Azabicyclo[3,2,1]oct-5-ylcarboxaldehyde, O-methyloxime hydrochloride salt], the IC50 at muscarinic receptors [1] amounted to 73 nM; on muscarinic receptors [2], 5200 nM.

For the compound `CON=C(C)C1CN2CCC1CC2` (mixture of isomers) [E 3, (±) trans-3-Acetyl-1-azabicyclo[2.2.21octane-O-methyloxime hydrochloride salt], the half-inhibitory concentration (IC50) at muscarinic receptors [1] is 69 nM; on muscarinic receptors [2], 2000 nM.

For the compound `C#CCON=C(C)C1CN2CCC1C2` (mixture of isomers) [E 15, (±)exo-3-Acetyl-1-azabicyclo2.2.1]heptane-trans-O-proparqyloxime hydrochloride salt], the values for the concentration for half-maximal inhibition (IC50) on muscarinic receptors [1] and on muscarinic receptors [2] were 219 nM and 3900 nM, respectively.

For `CCC(=NOC)C1CN2CCC1C2` (mixture of isomers) [E 16, (±)exo-3-Propan-1-one-1-azabicyclo2.2.11heptane-trans-O-methyloxime hydrochloride salt], the 50% inhibitory concentration (IC50) came to 204 nM on muscarinic receptors [1] and 3400 nM on muscarinic receptors [2].

Turning to `CON=CC1CN2CCC1CC2` (racemic) [E 2, (±) 1-Azabicyclo[2.2.2]oct-3-ylcarboxaldehyde, O-methyloxime hydrochloride salt], the IC50 turned out to be 95 nM on muscarinic receptors [1] and 10000 nM at muscarinic receptors [2].

Regarding `CON=C(C)C12CCCN(CC1)C2` (racemic) [E 6, (±) trans-5-Acetyl-1-azabicyclo[3.2.1]octane-O-methyloxime hydrochloride salt], the IC50 on muscarinic receptors [1] worked out at 46 nM; on muscarinic receptors [2] it was 4400 nM.

In the case of `CON=C(C)C1CN2CCC1C2` (racemic) [E 13, (±)exo-3-Acetyl-1-azabicyclo[2.2.1]heptane-trans-O-methyloxime oxalate salt], the IC50 on muscarinic receptors [1] is 99 nM; at muscarinic receptors [2] it was 9000 nM.

In the case of `C#CCON=CC1CN2CCC1CC2` (racemic) [E 17, (±)1-Azabicyclo[2.2.21oct-3-ylcarboxaldehyde, O-proparqyloxime hydrochloride salt], the IC50 on muscarinic receptors [1] stood at 190 nM; on muscarinic receptors [2], 2450 nM.

Regarding `CON=C(C)C1CC2CCN(C2)C1` (racemic) [E 24, (±)exo-3-Acetyl-1-azabicyclo[3.2.1]octane-trans-O-methyloxime hydrochloride salt], the figures for the half-inhibitory concentration (IC50) at muscarinic receptors [1] and at muscarinic receptors [2] were 320 nM and 7300 nM, respectively.

Turning to `CON=C[C@@H]1CN2CC[C@@H]1C2` (relative stereo) [E 7, (±) exo-1-Azabicyclo[2.2.1]hept-3-ylcarboxaldehyde, O-methyloxime oxalate salt], the IC50 turned out to be 14 nM on muscarinic receptors [1] and 4800 nM on muscarinic receptors [2].

Regarding `CCON=C[C@@H]1CN2CC[C@@H]1C2` (relative stereo) [E 8, (±) exo-1-Azabicyclo[2.2.1]hept-3-ylcarboxaldehyde, O-ethyloxime oxalate salt], the figures for the IC50 on muscarinic receptors [1] and at muscarinic receptors [2] were 160 nM and 5600 nM, respectively.

In the case of `C#CCON=C[C@@H]1CN2CC[C@@H]1C2` (relative stereo) [E 9, (±) exo-1-Azabicyclo[2.2.11hept-3-ylcarboxaldehyde, O-proparqyloxime oxalate salt], the IC50 at muscarinic receptors [1] stood at 24 nM; on muscarinic receptors [2], 2700 nM.

Consider `C=CCON=C[C@@H]1CN2CC[C@@H]1C2` (relative stereo) [E 22, (±)exo-1-Azabicyclo2.2.1]hept-3-ylcarboxaldehyde, O-allyloxime oxalate salt], for which the values for the IC50 on muscarinic receptors [1] and at muscarinic receptors [2] were 215 nM and 8500 nM, respectively.

In the case of `CON=C[C@H]1C[C@@H]2CCN(C1)C2` (relative stereo) [E 23, (±)exo-1-Azabicyclo[3.2.11oct-3-ylcarboxaldehyde, O-methyloxime hydrochloride salt], the IC50 was 240 nM on muscarinic receptors [1] and 5570 nM at muscarinic receptors [2].

As for `CON=CC12CCN(CC1)C2` [E 19, syn-1-Azabicyclo[2.2.1]hept-4-ylcarboxaldehyde, O-methyloxime hydrochloride salt], the IC50 is 118 nM on muscarinic receptors [1] and 40000 nM at muscarinic receptors [2].

Regarding `CON=C(C)C12CCN(CC1)C2` [E 20, 4-Acetyl-1-azabicyclo[2.2.1]heptane-O-methyloxime oxalate salt], the IC50 stood at 55 nM at muscarinic receptors [1] and 12500 nM at muscarinic receptors [2].

Turning to `C#CCON=CC12CCN(CC1)C2` [E 21, syn-1-Azabicyclo[2.2.11hect-4-ylcarboxaldehyde, O-proparqyloxime oxalate salt], the IC50 at muscarinic receptors [1] came to 352 nM; on muscarinic receptors [2] it was 21000 nM.
